The values below come from patent US20020169126A1, “Compositions and methods for inactivating the Akt oncogene and/or activating the p38 pro-apoptotic gene” (priority 2001, published 2002).

For data set [1] the following is noted: cited from earlier work; for dose excreted or recovered in the urine: unchanged, intact or active drug; for absorption: oral.
For data set [2] the following is noted: oral and parental routes; cited from earlier work.
In the next data set the test system is p38. In words: Relative p38 activity (p38-p versus p38-c) after blocking Akt. Format: cell-based, human. As to conditions: 0.1 μM, 4 hours. On the procedure: (§1) In order to determine the relationships between the Akt pathway and the p38 pathway, experiments were performed with inhibitors of both pathways. Wortmannin was used to inhibit the Akt pathway. Wortmannin is a drug that inhibits P13K which is a signal protein that is directly upstream of Akt in the Akt pathway. A synthetic compound, SB203580, was used as a p38 specific inhibitor. Cells were serum starved overnight and were then treated with either SB203580 (20 μM) or Wortmannin (0.1 μM) for 4 hours, 8, hours, 16 hours, 24 hours, 36 hours. When p38 activity was blocked by SB203580 for 8 hours, the Akt activity was increased by approximately 3 fold in E1A stable expressing MDA-MB-231 cells. Whereas, when Akt activity was blocked by Wortmannin for 4 hours, the p38 activity was enhanced to approximately 6 fold. The relative p38 activity (p38-p versus p38-c) and relative Akt activity (Akt-p versus Akt-c) are illustrated in FIG. 2A and FIG. 2B respectively.

The test system of another data set is MDA-MB-231 cells. As to the kind of experiment: Taxol treatment of 231 vector and 231-E1A tumors in nude mice. Format: in vivo. The source says: To establish orthotopic breast cancer model in nude mice, human MDA-MB-231 cells were inoculated into the mammary fat pad (m.f.p.) of mouse. Tumor size were monitored and caculated on a weekly basis.
Expression of E1A enhanced the anti-tumor effect of the chemotherapeutic drug Taxol in nude mice in vivo and prolonged animal survival rate. […] TUNEL labeling of apoptotic cells in the tumor tissues with or without treatment of Taxol also confirms this. The treatment groups included the SN vehicle, SN-liposome-E1A, Taxol alone, and Taxol plus SN-E1A. At least 7 animals were included in each group.

The test system of another data set is Akt. In words: Relative Akt activity (Akt-p versus Akt-c) after blocking p38. Format: cell-based, human. To be noted: 20 μM, 8 hours, E1A stable expressing MDA-MB-231 cells. On the procedure: as §1
The test system of the next data set is breast cancer cells. In words: Sensitization to Taxol-mediated cytotoxicity. Format: cell-based, human. To be noted: blocking p38 activity, together with constitutively active Akt. The method, then:
The indirect measure of the viable cells after exposure to Taxol using the metabolic conversion of tetrazolium salt (MTT) to formazan was used. Cells (3×10^3/well) were seeded in triplicate in 96-well culture plates in 0.2 ml of culture medium and allowed to adhere for 24 h. After exposure to Taxol for a certain period of time, 20 μl of MTT was then added to each well. Cells were cultured for an additional 2 h, and followed by addition of 100 μl of extraction buffer (20% SDS in 50% N,N-dimethyl formamide, pH 4.7). The cells were incubated overnight at 37° C., and the plates were absorbance at 570 nm was measured.

Counter-ions that a name gives are not always drawn. Starred links: 1 amine or outer side, 2 acyl side, 3 side chain; linkers in the order of their positions; H or OH if unused. Positions of bridges follow the written chain, without caps; N, C: chain ends. Non-standard residues stand in square brackets, D forms with d. Residues, ends and D or L forms follow the SMILES beside them. Chains are numbered I, II in the order given. Actinocin(9to1) = Cc1c2oc3c(C)ccc(C(=O)[*:1])c3nc-2c(C(=O)[*:2])c(N)c1=O; NMeV = CN[C@H](C(=O)O)C(C)C; Sar = CNCC(=O)O

On to `CO[C@@]12[C@H](COC(N)=O)C3=C(C(=O)C(C)=C(N)C3=O)N1C[C@@H]1N[C@@H]12` [Mitomycin], for which the “dose excreted or recovered in the urine” value in data set [1] was “Approximately 10%”.

For `O=P1(N(CCCl)CCCl)NCCCO1` (stereo not shown) [Cyclophosphamide, 2H -1,3,2-Oxazaphosphorin-2-amine, N,N-bis(2-chloroethyl)tetrahydro-, 2-oxide, monohydrate], the local tolerance entry in data set [2] is recorded as “does not cause local vesication, necrosis, phlebitis or even pain”.

On to `COC[C@H]1OC(=O)c2coc3c2[C@@]1(C)C1=C(C3=O)[C@@H]2CCC(=O)[C@@]2(C)C[C@H]1OC(C)=O` [Wortmannin], for which the “enhancement of p38 activity” value with p38 was “approximately 6 fold”.

For the molecule `CC[C@]1(O)C[C@@H]2CN(CCc3c([nH]c4ccccc34)[C@@](C(=O)OC)(c3cc4c(cc3OC)N(C)[C@H]3[C@@](O)(C(=O)OC)[C@H](OC(C)=O)[C@]5(CC)C=CCN6CC[C@]43[C@@H]65)C2)C1` [Vinblastine], in data set [1], the “absorption” value was “Unpredictable absorption” and the “dose excreted or recovered in the urine” value is recorded as “Approximately 15%”.

Turning to `Cc1c2oc3c(C)ccc(C(=O)N[C@@H]4C(=O)N[C@H](C(C)C)C(=O)N5CCC[C@H]5C(=O)N(C)CC(=O)N(C)[C@@H](C(C)C)C(=O)O[C@@H]4C)c3nc-2c(C(=O)N[C@@H]2C(=O)N[C@H](C(C)C)C(=O)N3CCC[C@H]3C(=O)N(C)CC(=O)N(C)[C@@H](C(C)C)C(=O)O[C@@H]2C)c(N)c1=O` [Actinomycin D] (I: T[dV]P[Sar][NMeV] / II: T[dV]P[Sar][NMeV]; ester I:1-I:C, II:1-II:C; linker I:N-II:N via Actinocin(9to1)), in data set [1] (in vivo), the “excreted intact into the bile” value is “Half of the dose”. Also, the “dose excreted or recovered in the urine” value in data set [1] is recorded as 10%.

On to `CC[C@]1(O)C[C@H]2CN(CCc3c([nH]c4ccccc34)[C@@](C(=O)OC)(c3cc4c(cc3OC)N(C=O)[C@H]3[C@@](O)(C(=O)OC)[C@H](OC(C)=O)[C@]5(CC)C=CCN6CC[C@]43[C@@H]65)C2)C1` [Vincristine], for which the “absorption” value in data set [1] is given as “Unpredictable absorption”.

As for `CC(=O)O[C@H]1C(=O)[C@@]2(C)[C@H]([C@H](OC(=O)c3ccccc3)[C@]3(O)C[C@H](OC(=O)[C@H](O)[C@@H](NC(=O)c4ccccc4)c4ccccc4)C(C)=C1C3(C)C)[C@]1(OC(C)=O)CO[C@@H]1C[C@@H]2O` [Taxol], the “therapeutic effect of Taxol in E1A tumors versus vector tumors” value in the data set with MDA-MB-231 cells (231-E1A cells) was “more dramatic therapeutic effect”. The “tumor growth under Taxol treatment” value in the data set with MDA-MB-231 cells (231 vector and 231-E1A tumors) is listed as “repressed tumor growth”.

`O=C(O)CCCc1ccc(N(CCCl)CCCl)cc1` [Chlorambucil, 4-[bis(2-chlorethyl)amino] benzenebutanoic acid]: the “absorption” value in data set [1] was “rapidly and completely absorbed from the gastrointestinal tract”.

`COc1cccc2c1C(=O)c1c(O)c3c(c(O)c1C2=O)C[C@@](O)(C(=O)CO)C[C@@H]3O[C@H]1C[C@H](N)[C@H](O)[C@H](C)O1` [Doxorubicin, 5,12-Naphthacenedione, (8s-cis)-10-[(3-amino-2,3,6-trideoxy-a-L-lyxo-hexopyranosyl)oxy]-7,8,9,10-tetrahydro-6,8,11-trihydroxy-8-(hydroxyacetyl)-1-methoxy-hydrochloride]: the “absorption” value in data set [1] was “absorbed poorly”.

For `COc1cccc2c1C(=O)c1c(O)c3c(c(O)c1C2=O)C[C@@](O)(C(C)=O)C[C@@H]3O[C@H]1C[C@H](N)[C@H](O)[C@H](C)O1` [Daunorubicin, 5,12-Naphthacenedione, (8S-cis)-8-acetyl-10-[(3-amino-2,3,6-trideoxy-a-L-lyxo-hexanopyranosyl)oxy]-7,8,9,10-tetrahydro-6,8,11-trihydroxy-10-methoxy-, hydrochloride], in data set [1], the “absorption” value is recorded as “poor”.

In the case of `C[S+]([O-])c1ccc(-c2nc(-c3ccncc3)c(-c3ccc(F)cc3)[nH]2)cc1` (stereo not shown) [SB203580], the “increase of Akt activity” value in the data set with Akt is recorded as “approximately 3 fold”. Further, the “effect on the ability of E1A to sensitize cells to Taxol-mediated cytotoxicity” value in the data set with breast cancer cells is “partially abrogated”.

As to `N.N.[Cl][Pt][Cl]` [Cisplatin], the “absorption” value in data set [1] is “not absorbed orally”.
